# Patent US11713302B2, “Sulfonamide benzamide derivative and preparation method and application thereof” (WEIFANG MEDICAL UNIVERSITY, priority 2021, dated 2023)
# Like-named read-outs stand apart in the source and are kept apart here.
# Legend:
# [1] = Cytotoxicity assay (CCK-8) in HepAD38 cells; assay type: cell-based; details: human
# Method: (§1) HBV stably transfected hepatocellular carcinoma cell line, HepAD38, was able to secrete HBV viral particles (containing HBsAg, HBeAg and DNA) when the cells were cultured. The amount of HBsAg and HBeAg secreted by the cells and the DNA produced varied under the intervention of anti-HBV target compounds, so the antiviral activity of the sample drug could be calculated by measuring the amount of HBsAg and HBeAg secreted by the cells into the culture supernatant and the HBV DNA produced, with reference to the amount in the unspiked control. Using entecavir as a positive control drug, the concentration of the drug at 50% inhibition of HBV DNA was measured by quantitative PCR at the value of IC50; the concentration of the sample drug causing 50% cell death was measured by CCK-8 at the value of CC50, and the “selectivity index” of the compound to be tested was calculated. SI=CC50/IC50. (1) Cytotoxicity assay
# (§2) Each sample was prepared with HepAD38 cell culture medium at a diluted concentration (1 μM) for preliminary activity screening, and a blank control was set up and a positive control drug was added to the 96-well cell culture plate with 3 replicate wells per concentration, and the same concentration was changed every 2 days and a drug-free cell control group was set up for 10 days. Cell viability was measured by CCK-8 assay to determine the toxicity of the drug to HepAD38 cells. Five dilutions (10 μM, 2 μM, 0.4 μM, 0.08 μM and […]) were prepared in HepAD38 cell culture medium for compounds with low toxicity, and a blank control and entecavir and lead compound 5a were used as positive control drugs. Cell culture plates were added to 96-well plates with 3 replicate wells per concentration, and the same concentration was changed every 2 days and a drug-free cell control group was set up for 10 days. Cell viability was measured by CCK-8 assay to determine the toxicity of the drug on HepAD38 cells.
# HBV DNA = HBV DNA activity inhibition assay (quantitative PCR) in HepAD38 cells; assay type: cell-based, hepatitis B virus (HBV)
# Method: as §1
# (2) HBV DNA Activity Inhibition Assay (Quantitative PCR Method)
# HepAD38 cells were cultured in 96-well cell culture plate for 24 hours, then 10 μM, 2 μM, 0.4 μM, 0.08 μM and […] drug-containing medium was added and the cells were incubated for 10 days (changed every 2 days), the supernatant was collected and the supernatant HBV DNA content was measured by quantitative PCR.
# HepAD38 cells = test: Cytotoxicity assay (CCK-8) in HepAD38 cells; assay type: cell-based; details: CCK-8, 10 days
# Method: as §1, §2
# [2] = Hepatitis B virus, HePAD38, 240 h
# [3] = Hepatitis B virus, 240 h, supernatant HBV DNA, HepAD38 cells, quantitative PCR, 10 days, read-out: EC50
# [4] = Hepatitis B virus, 240 h, supernatant HBV DNA, HepAD38 cells, quantitative PCR, 10 days, read-out: IC90
SMILES,"CC50 at 10 days ([1]; CCK-8, 10 days) [nM]",EC50 (HBV DNA; [2]) [nM],IC90 (HBV DNA; [2]) [nM],CC50 at 10 days ([1]; CCK-8) [nM],CC50 (HepAD38 cells) [nM],EC50 (HBV DNA; [3]) [nM],IC90 (HBV DNA; [4]) [nM],inhibition of HBV DNA replication activity (initial screening) (HBV DNA; quantitative PCR),"IC50 (HBV DNA; Hepatitis B virus, HePAD38, quantitative PCR, read-out: IC50 (anti-HBV DNA replication activity)) [nM]"
"C=C1[C@H](CO)[C@@H](O)C[C@@H]1n1cnc2c(=O)[nH]c(N)nc21 [ETV, entecavir, reference compound]",> 10000,0.121,21,–,–,–,–,–,–
O=C(Nc1ccc(F)c(Cl)c1)c1cc(S(=O)(=O)NC2CCCCC2)cc2c1OCCO2 [Compound 5c],–,–,–,> 10000,> 10000,14.9,430,good HBV DNA replication inhibitory activity,–
O=C(Nc1ccc(F)c(Cl)c1)c1cc(S(=O)(=O)NC2CCCC2)cc2c1OCCO2 [Compound 5b],–,–,–,> 10000,> 10000,2.52,293,good HBV DNA replication inhibitory activity,–
CC(C)NS(=O)(=O)c1cc2c(c(C(=O)Nc3ccc(F)c(Cl)c3)c1)OCCO2 [Compound 5k],–,–,–,> 10000,> 10000,0.96,99,good HBV DNA replication inhibitory activity,0.96
